Measured values from publication PMC11960969, “Mdga2 deficiency leads to an aberrant activation of BDNF/TrkB signaling that underlies autism-relevant synaptic and behavioral changes in mice” (PLOS Biology, 2025).

Legend:
[1] = tested on: TrkB signaling (pTrkB, pAkt, pmTOR); assay: Immunoblotting of TrkB signaling in hippocampus / brain of treated mice; type: in vivo, mouse; details: AAV-Mdga2 shRNA mice, n = 4, Fig 6E and 6H
[2] = tested on: TrkB signaling and synaptic proteins (pTrkB, pAkt, pmTOR, NLGN1, PSD-95, PSD-93); assay: Immunoblotting of TrkB signaling and synaptic proteins in primary neurons treated with ANA-12; type: cell-based, mouse; details: primary neurons from Mdga2+/- and Mdga2-/- mice, 10 μM, 24 h, n = 3
[3] = tested on: mice; assay: Social affiliation test; type: in vivo, mouse; details: Mdga2+/- mice
Description: (§1) Six- to eight-week-old male mice were subjected to various behavioral tests. Mice were allowed to acclimatize in the testing room for 1 h prior to each test. Data were recorded and analyzed using Smart 3.0 video tracking system (Panlab, Harvard Apparatus).
The test procedure was similar to that described previously. Briefly, a cylinder (8.5 cm in diameter) with a gender-matched reference mouse confined was placed at a specific location in an open field (40 cm in diameter). Tested mice were allowed to move freely in the open field for 7 min and their sniffing time with the reference mice was analyzed.

[4] = tested on: mice; assay: Novel location recognition (NLR) test; type: in vivo, mouse
Description: as §1
This test consists of habituation, training, and testing phases. Mice were first put into the open field apparatus described above for 10 min habituation. During the training phase, mice were allowed to freely explore two identical objects placed near two opposite corners of the open field arena for 8 min. Twenty-four hour later, one of the objects was moved to be close to a third corner (N: Novel location) while the other one was kept in the same spatial position (F: Familiar location). Mice were then tested for their exploration behavior with these objects for 8 min. The discrimination index (T(N − F)/T(N + F): time spent exploring the novel location minus time spent in familiar location over time spent to both novel and familiar location) was calculated to assess the recognition memory of mice.

[5] = tested on: CA1 pyramidal neurons (mEPSC, mIPSC); assay: Whole-cell recording of mEPSCs and mIPSCs in hippocampal slices; design: species or system mouse; details: chronic 0.5 mg/kg i.p.
[6] = tested on: AMPAR and NMDAR (evoked EPSCs); assay: Evoked AMPAR- and NMDAR-mediated EPSCs and AMPAR/NMDAR ratio in hippocampal slices; design: species or system mouse
[7] = tested on: mice; assay: Self-grooming test; type: in vivo, mouse; details: Mdga2+/- mice, chronic 0.5 mg/kg i.p.; Test 1 Interaction F(1,56) = 0.1344, p = 0.7153; Test 2 F(1,56) = 0.2389, p = 0.6269
Description: as §1
Tested mice were placed individually in a clean cage with fresh bedding. After 5 min of habituation, the spontaneous behaviors of mice were recorded for 30 min and their self-grooming behavior was analyzed.

[8] = tested on: mice; assay: Three-chamber test (sociability and social novelty); type: in vivo, mouse
Description: as §1
This test was performed as described previously with minor modifications. The apparatus (60 W × 40 D × 22 H cm) has two transparent partitions separating the left, the middle, and the right chambers (20 × 40 cm each), and each partition has a small opening (5 × 5 cm) for access to each chamber. A fixed wire cylinder (8.5 cm diameter) was placed in each of the left and the right chambers. This test consisted of three phases: habituation, sociability test, and social novelty test. During habituation, both left and right cylinders were empty, and tested mice were placed in the center and allowed to explore freely for 10 min. During the sociability test, a gender-matched strange mouse (S1) was enclosed in one empty cylinder, and mice were allowed to freely explore for 10 min. Their time spent sniffing S1 or the other empty cylinder (E) was measured and the sociability preference index (T(S1 − -E)/T(S1 + E): time spent sniffing S1 minus time spent sniffing E over time spent sniffing both S1 and E) was calculated for comparison. During the social novelty test, another gender-matched unfamiliar mouse (S2) was placed into the empty cylinder and mice were allowed to freely explore for another 10 min. Their time spent sniffing S1 or S2 was measured and the social novelty preference index (T(S2 − S1)/T(S2 + S1): time spent sniffing S2 minus time spent sniffing S1 over time spent sniffing both S2 and S1) was calculated for comparison.

O=C(Nc1ccccc1C(=O)NC1CCCCNC1=O)c1cc2ccccc2s1 (stereo not shown) [ANA-12, reference compound]
elevated TrkB signaling [1]: reversed the elevated TrkB signaling | increased levels of pTrkB, pAkt, pmTOR, NLGN1, PSD-95, and PSD-93 [2]: effectively reversed increased levels of pTrkB, pAkt, pmTOR, NLGN1, PSD-95, and PSD-93 | social preference (social affiliation) ([3]; acute 0.5 mg/kg i.p. 3 days, acute Test 1 (1 day): Interaction F(1,56) = 7.214, p = 0.0095): significantly higher social preference compared to controls in acute Test 1 | impaired social affiliation ([3]; chronic 0.5 mg/kg i.p., Test 1 (1 week) Interaction F(1,56) = 10.07, p = 0.0024, Test 2 (5 weeks) F(1,56) = 4.906, p = 0.0309): significantly improved impaired social affiliation in Mdga2^ +/− mice in both chronic Test 1 and chronic Test 2 | impaired recognition memory ([4]; AAV-Mdga2 shRNA mice, S6C and S6G Fig): neither ANA-12 nor the MDGA2-P2 peptide had effect on rescuing impaired recognition memory | impaired cognitive function ([4]; Mdga2+/- mice, acute 0.5 mg/kg i.p. 3 days, Test 1 Interaction F(1,56) = 3.941, p = 0.0520, Test 2 F(1,56) = 0.9635, p = 0.3305): nor did it attenuate impaired cognitive function | recognition memory ([4]; Mdga2+/- mice, chronic 0.5 mg/kg i.p. twice per week 3 weeks, Test 1 Interaction F(1,56) = 0.6210, p = 0.4340, Test 2 F(1,56) = 0.7506, p = 0.3900): did not affect the locomotor activity (Fig 5B) or recognition memory | increased mEPSC amplitude and frequency ([5]; Mdga2+/- mice, CA1, n = 14 cells from 3 mice, Interaction F(1,52) = 6.023, p = 0.0175, 5.282, p = 0.0256): reversed the increased mEPSC amplitude and frequency | mIPSC frequency or amplitude ([5]; hippocampal slices CA1, n = 15 cells from 3 mice, Interaction F(1,56) = 0.5436, p = 0.4640, 0.0127, p = 0.9106): nor did chronic ANA-12 treatment affect mIPSC frequency or amplitude | elevated AMPAR/NMDAR response ratios [6]: effectively attenuated upon chronic ANA-12 treatment | elevated evoked AMPAR-mediated EPSCs ([6]; Mdga2+/- mice, chronic 0.5 mg/kg i.p., n = 20-21 cells from 3 mice, Fig 5J): effectively attenuated upon chronic ANA-12 treatment | repetitive self-grooming behavior [7]: no rescuing effect on repetitive self-grooming behavior | impaired sociability and social novelty deficits (three-chamber) ([8]; AAV-Mdga2 shRNA mice, ANA-12 0.5 mg/kg i.p. twice per week 3 weeks, n = 10, Fig 6D): rescued impaired sociability and social novelty deficits | sociability preference ([8]; Mdga2+/- mice, acute 0.5 mg/kg i.p. 3 days, acute Test 1: Interaction F(1,56) = 9.336, p = 0.0034): significantly higher sociability preference when compared to controls in acute Test 1 | impaired sociability and social novelty ([8]; Mdga2+/- mice, chronic 0.5 mg/kg i.p., chronic Test 1, sociability F(1,56) = 13.52, p = 0.0005, novelty F(1,56) = 3.144, p = 0.0817): significantly improved impaired sociability and social novelty | impaired sociability ([8]; Mdga2+/- mice, chronic 0.5 mg/kg i.p., chronic Test 2, Interaction F(1,56) = 7.339, p = 0.0089): significantly improved impaired sociability in Mdga2^ +/− mice in chronic Test 2
